# Results as given in ChEMBL document CHEMBL1201862, “PubChem BioAssay data set” (2004).
#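 Compound exposure: 48 hours, 5 concentrations, 96-well plates. GI50 marks 50% less growth.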 Active and inactive are the calls of the source. No stated cut-off is given here; in the data, active = GI50 up to about 1.1 µM and inactive = higher.
# Assays:
# Test in all cases: NCI tumour cell line growth inhibition, 48 h
# MDA-MB-435 = system: MDA-MB-435
# HOP-92 = system: HOP-92
# NCI-H522 = system: NCI-H522
# OVCAR-3 = system: OVCAR-3
# HOP-62 = system: HOP-62
# TK-10 = system: TK-10
# UO-31 = system: UO-31
# SK-MEL-2 = system: SK-MEL-2
# DU-145 = system: DU-145
# EKVX = system: EKVX
# UACC-257 = system: UACC-257
# MDA-N = system: MDA-N
# PC-3 = system: PC-3
# K562 = system: K562
# HCT-15 = system: HCT-15
# BT-549 = system: BT-549
# HT-29 = system: HT-29
# SNB-75 = system: SNB-75
Compound,GI50 (MDA-MB-435),GI50 (HOP-92),GI50 (NCI-H522),GI50 (OVCAR-3),GI50 (HOP-62),GI50 (TK-10),GI50 (UO-31),GI50 (SK-MEL-2),GI50 (DU-145),GI50 (EKVX),GI50 (UACC-257),GI50 (MDA-N),GI50 (PC-3),GI50 (K562),GI50 (HCT-15),GI50 (BT-549),GI50 (HT-29),GI50 (SNB-75)
CSC1=NC(C(N)=O)C(N)N1C (stereo not drawn),> 100 µM (inactive),> 100 µM (inactive),> 100 µM (inactive),> 100 µM (inactive),> 100 µM (inactive),> 100 µM (inactive),> 100 µM (inactive),> 100 µM (inactive),> 100 µM (inactive),> 100 µM (inactive),> 100 µM (inactive),> 100 µM (inactive),> 100 µM (inactive),> 100 µM (inactive),> 100 µM,> 100 µM (inactive),> 100 µM (inactive),
Cc1cc(C)c2c(=N)c3ccccc3n(CCCCCCO)c2n1,4.38 µM (inactive),4.26 µM (inactive),1.44 µM (inactive),6.55 µM (inactive),4.53 µM (inactive),3.15 µM (inactive),1.63 µM (inactive),3.27 µM (inactive),5.48 µM (inactive),2.82 µM (inactive),4.75 µM (inactive),2.52 µM (inactive),2.21 µM (inactive),,2.88 µM,6.89 µM (inactive),1.03 µM (active),1.88 µM (inactive)
Cc1cc(S(=O)(=O)Nc2n[nH]c(-c3ccc(Cl)cn3)n2)c(S)cc1Cl,43.1 µM (inactive),9.04 µM (inactive),46.1 µM (inactive),45.6 µM (inactive),76.6 µM (inactive),> 100 µM (inactive),29.5 µM (inactive),47.5 µM (inactive),> 100 µM (inactive),> 100 µM (inactive),> 100 µM (inactive),63.4 µM (inactive),> 100 µM (inactive),,70.1 µM,32.2 µM (inactive),39.3 µM (inactive),80.9 µM (inactive)
COc1cc(/C=C2\N=C(c3ccccc3)N(c3ccc(C(=O)c4ccccc4)cc3N3C(=O)/C(=C/c4ccc(O)c(OC)c4)N=C3c3ccccc3)C2=O)ccc1O,2.25 µM (inactive),22.7 µM (inactive),,3.52 µM (inactive),14.5 µM (inactive),18.5 µM (inactive),13 µM (inactive),13.4 µM (inactive),17 µM (inactive),25.9 µM (inactive),16.8 µM (inactive),3.75 µM (inactive),11.8 µM (inactive),5.18 µM (inactive),5.28 µM,18.7 µM (inactive),20.3 µM (inactive),18.8 µM (inactive)
CCCCc1ccc2[n+](c1)C(C(=O)OCC)=PC2 (stereo not drawn),> 100 µM (inactive),> 100 µM (inactive),54.2 µM (inactive),> 100 µM (inactive),> 100 µM (inactive),> 100 µM (inactive),,,> 100 µM (inactive),> 100 µM (inactive),> 100 µM (inactive),56.9 µM (inactive),> 100 µM (inactive),,39.6 µM,> 100 µM (inactive),42.8 µM (inactive),44.7 µM (inactive)
CC1(C)CCCCC1/C=C/C(CC(O)(C(F)(F)F)C(F)(F)F)=N\Nc1ccc([N+](=O)[O-])cc1[N+](=O)[O-] (stereo not drawn),0.49 µM (active),,0.49 µM (active),0.409 µM (active),0.578 µM (active),0.546 µM (active),0.706 µM (active),3.18 µM (inactive),2.52 µM (inactive),,0.962 µM (active),2.84 µM (inactive),0.333 µM (active),0.368 µM (active),1.32 µM,0.376 µM (active),1.76 µM (inactive),1.31 µM (inactive)
c1cc(-c2cscc2-c2ccsc2)cs1,36.4 µM (inactive),> 100 µM (inactive),,14.4 µM (inactive),26.5 µM (inactive),88.5 µM (inactive),72.9 µM (inactive),4.65 µM (inactive),> 100 µM (inactive),41.3 µM (inactive),58.2 µM (inactive),40.2 µM (inactive),27.5 µM (inactive),71.4 µM (inactive),29.4 µM,37.8 µM (inactive),> 100 µM (inactive),12.3 µM (inactive)
Cc1ccc(O)c(C2=CC(c3cccc(Cl)c3)SC(=N)N2)c1 (stereo not drawn),19 µM (inactive),10.8 µM (inactive),16.1 µM (inactive),29.5 µM (inactive),23 µM (inactive),22.4 µM (inactive),27.4 µM (inactive),18.2 µM (inactive),46.5 µM (inactive),17.1 µM (inactive),20.6 µM (inactive),18.8 µM (inactive),16.6 µM (inactive),19.4 µM (inactive),18.9 µM,31.6 µM (inactive),20.8 µM (inactive),
O=C1c2ccccc2C(=O)N1n1c(Cc2ccc([N+](=O)[O-])cc2)n[nH]c1=O,> 100 µM (inactive),> 100 µM (inactive),> 100 µM (inactive),> 100 µM (inactive),> 100 µM (inactive),> 100 µM (inactive),> 100 µM (inactive),75.2 µM (inactive),> 100 µM (inactive),,> 100 µM (inactive),> 100 µM (inactive),> 100 µM (inactive),> 100 µM (inactive),> 100 µM,> 100 µM (inactive),> 100 µM (inactive),> 100 µM (inactive)
COc1cc(Br)cc2cc(C3=CSC4=NCCN34)c(=O)oc12,17.8 µM (inactive),17.1 µM (inactive),,16.8 µM (inactive),19.3 µM (inactive),18.8 µM (inactive),19.3 µM (inactive),20.3 µM (inactive),17.8 µM (inactive),17.7 µM (inactive),25.3 µM (inactive),18.5 µM (inactive),18.3 µM (inactive),26.5 µM (inactive),17.2 µM,22 µM (inactive),19.1 µM (inactive),21 µM (inactive)
Cc1cn(CCOCCOC(=O)NC(CCCNC(=N)N)C(=O)O)c(=O)[nH]c1=O (stereo not drawn),> 100 µM (inactive),> 100 µM (inactive),,> 100 µM (inactive),> 100 µM (inactive),> 100 µM (inactive),> 100 µM (inactive),> 100 µM (inactive),> 100 µM (inactive),> 100 µM (inactive),> 100 µM (inactive),> 100 µM (inactive),> 100 µM (inactive),> 100 µM (inactive),> 100 µM,> 100 µM (inactive),> 100 µM (inactive),> 100 µM (inactive)
CC(=O)O[C@H]1CCC2[C@@H]3CCC4NC(=O)C(C#N)C[C@]4(C)C3CC[C@@]21C (stereo partly drawn),> 10 µM (inactive),> 10 µM (inactive),,> 10 µM (inactive),> 10 µM (inactive),> 10 µM (inactive),> 10 µM (inactive),> 10 µM (inactive),> 10 µM (inactive),8.17 µM (inactive),> 10 µM (inactive),> 10 µM (inactive),> 10 µM (inactive),> 10 µM (inactive),> 10 µM,> 10 µM (inactive),> 10 µM (inactive),
CCOC(=O)c1cc(-c2ccn(C(C)=O)c2)c(-c2cc(C)co2)[nH]1,> 100 µM (inactive),,> 100 µM (inactive),> 100 µM (inactive),> 100 µM (inactive),> 100 µM (inactive),> 100 µM (inactive),> 100 µM (inactive),> 100 µM (inactive),> 100 µM (inactive),> 100 µM (inactive),> 100 µM (inactive),> 100 µM (inactive),> 100 µM (inactive),> 100 µM,> 100 µM (inactive),,> 100 µM (inactive)
CCOC(=O)CNc1c(OCc2ccccc2)c(=O)c1=O,> 100 µM (inactive),,> 100 µM (inactive),> 100 µM (inactive),> 100 µM (inactive),> 100 µM (inactive),> 100 µM (inactive),> 100 µM (inactive),> 100 µM (inactive),> 100 µM (inactive),> 100 µM (inactive),> 100 µM (inactive),> 100 µM (inactive),> 100 µM (inactive),> 100 µM,> 100 µM (inactive),> 100 µM (inactive),> 100 µM (inactive)
COc1cccc(/C=N/[N+](C)(C)C)c1O,> 10 µM (inactive),,> 10 µM (inactive),> 10 µM (inactive),> 10 µM (inactive),> 10 µM (inactive),> 10 µM (inactive),> 10 µM (inactive),> 10 µM (inactive),> 10 µM (inactive),> 10 µM (inactive),> 10 µM (inactive),> 10 µM (inactive),> 10 µM (inactive),> 10 µM,> 10 µM (inactive),> 10 µM (inactive),> 10 µM (inactive)
COC(=O)C1(Cc2cccc(Cl)c2)CCCCCCN1C(=O)c1ccccc1 (stereo not drawn),18.9 µM (inactive),14.3 µM (inactive),,6.71 µM (inactive),15.5 µM (inactive),12 µM (inactive),10.8 µM (inactive),,19.3 µM (inactive),12 µM (inactive),> 10 µM (inactive),16.5 µM (inactive),4.98 µM (inactive),10.7 µM (inactive),11.5 µM,16.7 µM (inactive),12.9 µM (inactive),13 µM (inactive)
CC(=O)O[C@@H]1C=C(C)[C@H](CBr)O[C@@]2(C)CC[C@H](Br)C(C)(C)[C@H]12,> 100 µM (inactive),> 100 µM (inactive),38.2 µM (inactive),,> 100 µM (inactive),> 100 µM (inactive),> 100 µM (inactive),> 100 µM (inactive),> 100 µM (inactive),> 100 µM (inactive),> 100 µM (inactive),> 100 µM (inactive),> 100 µM (inactive),25.3 µM (inactive),> 100 µM,> 100 µM (inactive),> 100 µM (inactive),> 100 µM (inactive)
